Article PMC4143292, “An Enzymatic Platform for the Synthesis of Isoprenoid Precursors” (PLoS ONE, 2014)

Molecular target: T1, DPM-DC (diphosphomevalonate decarboxylase) (Streptococcus pneumoniae, UniProt A0A0H2UNP0)
T1 construct: gene mvaD; N-terminal His9-GST tag removed with PreScission protease; expressed in E. coli BL21(DE3)
T1 sequence (A0A0H2UNP0 1-317): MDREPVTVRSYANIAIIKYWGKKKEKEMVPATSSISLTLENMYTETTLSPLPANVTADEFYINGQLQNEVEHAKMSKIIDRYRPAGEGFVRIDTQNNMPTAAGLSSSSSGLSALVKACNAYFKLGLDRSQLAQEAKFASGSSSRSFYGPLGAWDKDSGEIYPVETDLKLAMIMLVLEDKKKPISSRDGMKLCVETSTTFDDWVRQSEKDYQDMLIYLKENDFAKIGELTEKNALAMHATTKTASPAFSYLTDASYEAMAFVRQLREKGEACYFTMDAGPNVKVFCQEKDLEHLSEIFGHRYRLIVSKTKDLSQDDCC
Assay: PK/LDH-coupled NADH oxidation
Type: biochemical
Conditions: ATP 2.0 mM, MgCl2 1.0 mM + nucleotide, KCl 50 mM, Hepes pH 8.0, 25 C

Question: With `C[C@@](O)(CCOP(=O)(O)OP(=O)(O)O)CC(=O)O` [DPM] as the compound, how does the “PK/LDH-coupled NADH oxidation” value read?
Answer: DPM formation was assayed by adding an aliquot the DPM-synthesis reaction into a DPM decarboxylase
